Like-named read-outs stand apart in the source and are kept apart here.
Experiments:
Format in all cases: binding
KRAS G12S = target: T1, KRAS G12S (Homo sapiens, UniProt P01116, G12S); experiment: HTRF assay of K-Ras G12S interaction with SOS1 (PPI-HTRF)
T1 construct: made in house; host or cells: E. coli, e.g. BL21 (DE3)
Method in brief: (§1)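 HTRF on GST-K-Ras/His-hSOS1 was measured after ≥10 min in pH 7.4 HEPES buffer. IC50 values were derived from the ratiometric emission signal.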

KRAS G12D = target: T2, KRAS G12D (Homo sapiens, UniProt P01116, G12D); experiment: HTRF assay of K-Ras G12D interaction with SOS1 (PPI-HTRF)
T2 construct: made in house; host or cells: E. coli, e.g. BL21 (DE3)
T2 sequence (P01116 1-188 isoform P01116-2 G12D): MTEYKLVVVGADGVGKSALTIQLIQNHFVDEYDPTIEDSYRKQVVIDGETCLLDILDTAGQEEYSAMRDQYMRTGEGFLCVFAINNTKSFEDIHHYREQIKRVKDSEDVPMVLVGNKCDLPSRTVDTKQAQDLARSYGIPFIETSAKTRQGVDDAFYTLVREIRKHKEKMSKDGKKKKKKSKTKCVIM
Method in brief: as §1

KRAS WT = target: T3, KRAS WT (Homo sapiens, UniProt P01116); experiment: HTRF assay of wildtype K-Ras interaction with SOS1 (PPI-HTRF)
T3 construct: made in house; host or cells: E. coli, e.g. BL21 (DE3)
T3 sequence (P01116 1-188 isoform P01116-2): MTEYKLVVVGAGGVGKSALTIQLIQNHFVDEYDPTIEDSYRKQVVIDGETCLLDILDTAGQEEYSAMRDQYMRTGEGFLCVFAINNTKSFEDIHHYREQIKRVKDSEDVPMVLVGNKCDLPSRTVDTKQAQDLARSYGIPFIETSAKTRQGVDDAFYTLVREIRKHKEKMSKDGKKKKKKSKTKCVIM
Method in brief: as §1

[1] = 5 nM KRAS G12S, read-out: PPI-HTRF-5 nM KRAS G12S
[2] = HTRF, 5 nM KRAS G12D, read-out: PPI-HTRF-5 nM KRAS G12D
[3] = HTRF, 5 nM KRAS WT, read-out: PPI-HTRF-5 nM KRAS WT

Measured: IC50

T1 sequence (P01116 1-188 isoform P01116-2 G12S): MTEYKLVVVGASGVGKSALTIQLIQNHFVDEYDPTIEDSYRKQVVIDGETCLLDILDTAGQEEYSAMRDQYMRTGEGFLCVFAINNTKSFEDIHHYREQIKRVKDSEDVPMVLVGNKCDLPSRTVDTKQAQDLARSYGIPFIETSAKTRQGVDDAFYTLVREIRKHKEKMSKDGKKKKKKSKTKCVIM

N#Cc1c(N)sc2c(F)ccc(-c3c(Cl)cc4c(N5CCC6(CCCN6)C5)nc(OC[C@@]56CCCN5C[C@H](F)C6)nc4c3F)c12 (stereo partly drawn) [Compound 284, 2-amino-4-(6-chloro-8-fluoro-2-(((2R,7aS)-2-fluorotetrahydro-1H-pyrrolizin-7a(5H)-yl)methoxy)-4-(1,7-diazaspiro[4.4]nonan-7-yl)quinazolin-7-yl)-7-fluorobenzo[b]thiophene-3-carbonitrile]
< 5 µM: KRAS G12S; [1] | KRAS G12D; [2] | KRAS WT; [3]

N#Cc1c(N)sc2c(F)ccc(-c3c(Cl)cc4c(N5CC[C@]6(CCN6)C5)nc(OC[C@@]56CCCN5C[C@H](F)C6)nc4c3F)c12 [Compound 285, 2-amino-4-(6-chloro-8-fluoro-2-(((2R,7aS)-2-fluorotetrahydro-1H-pyrrolizin-7a(5H)-yl)methoxy)-4-((R)-1,6-diazaspiro[3.4]octan-6-yl)quinazolin-7-yl)-7-fluorobenzo[b]thiophene-3-carbonitrile]
< 5 µM: KRAS G12S; [1] | KRAS G12D; [2] | KRAS WT; [3]

Cc1cc(N)nc(-c2c(Cl)cc3c(N4CCC5(CCN5C(=O)n5cncn5)C4)nc(OC[C@@]45CCCN4C[C@H](F)C5)nc3c2F)c1C(F)(F)F (stereo partly drawn) [Compound 286, (6-(7-(6-amino-4-methyl-3-(trifluoromethyl)pyridin-2-yl)-6-chloro-8-fluoro-2-(((2R,7aS)-2-fluorotetrahydro-1H-pyrrolizin-7a(5H)-yl)methoxy)quinazolin-4-yl)-1,6-diazaspiro[3.4]octan-1-yl)(1H-1,2,4-triazol-1-yl)methanone]
< 5 µM: KRAS G12S; [1] | KRAS G12D; [2] | KRAS WT; [3]

N#Cc1c(N)sc2c(F)ccc(-c3c(Cl)cc4c(N5CCC6(CCN6C(=O)n6ccnc6C#N)C5)nc(OC[C@@]56CCCN5C[C@H](F)C6)nc4c3F)c12 (stereo partly drawn) [Compound 287, 1-(6-(7-(2-amino-3-cyano-7-fluorobenzo[b]thiophen-4-yl)-6-chloro-8-fluoro-2-(((2R,7aS)-2-fluorotetrahydro-1H-pyrrolizin-7a(5H)-yl)methoxy)quinazolin-4-yl)-1,6-diazaspiro[3.4]octane-1-carbonyl)-1H-imidazole-2-carbonitrile]
< 5 µM: KRAS G12S; [1] | KRAS G12D; [2] | KRAS WT; [3]

N#Cc1c(N)sc2c(F)ccc(-c3c(Cl)cc4c(N5CCC6(CCN6C(=O)n6nc(C7CC7)nc6Cl)C5)nc(OC[C@@]56CCCN5C[C@H](F)C6)nc4c3F)c12 (stereo partly drawn) [Compound 288, 2-amino-4-(6-chloro-4-(1-(5-chloro-3-cyclopropyl-1H-1,2,4-triazole-1-carbonyl)-1,6-diazaspiro[3.4]octan-6-yl)-8-fluoro-2-(((2R,7aS)-2-fluorotetrahydro-1H-pyrrolizin-7a(5H)-yl)methoxy)quinazolin-7-yl)-7-fluorobenzo[b]thiophene-3-carbonitrile]
< 5 µM: KRAS G12S; [1] | KRAS G12D; [2] | KRAS WT; [3]

N#Cc1c(N)sc2c(F)ccc(-c3c(Cl)cc4c(N5CCC6(CCN6C(=O)n6cccc6C#N)C5)nc(OC[C@@]56CCCN5C[C@H](F)C6)nc4c3F)c12 (stereo partly drawn) [Compound 289, 1-(6-(7-(2-amino-3-cyano-7-fluorobenzo[b]thiophen-4-yl)-6-chloro-8-fluoro-2-(((2R,7aS)-2-fluorotetrahydro-1H-pyrrolizin-7a(5H)-yl)methoxy)quinazolin-4-yl)-1,6-diazaspiro[3.4]octane-1-carbonyl)-1H-pyrrole-2-carbonitrile]
< 5 µM: KRAS G12S; [1] | KRAS G12D; [2] | KRAS WT; [3]

N#Cc1c(N)sc2c(F)ccc(-c3c(Cl)cc4c(N5CCC6(CCN6C(=O)n6nccc6C#N)C5)nc(OC[C@@]56CCCN5C[C@H](F)C6)nc4c3F)c12 (stereo partly drawn) [Compound 290, 1-(6-(7-(2-amino-3-cyano-7-fluorobenzo[b]thiophen-4-yl)-6-chloro-8-fluoro-2-(((2R,7aS)-2-fluorotetrahydro-1H-pyrrolizin-7a(5H)-yl)methoxy)quinazolin-4-yl)-1,6-diazaspiro[3.4]octane-1-carbonyl)-1H-pyrazole-5-carbonitrile]
< 5 µM: KRAS G12S; [1] | KRAS G12D; [2] | KRAS WT; [3]

C=CC(=O)N1CC[C@@]12CCN(c1nc(OC[C@@]34CCCN3C[C@H](F)C4)nc3c(F)c(-c4ccc(F)c5sc(N)c(C#N)c45)c(Cl)cc13)C2 [Compound 291]
< 5 µM: KRAS G12S; [1] | KRAS G12D; [2] | KRAS WT; [3]

N#Cc1c(N)sc2c(F)ccc(-c3c(Cl)cc4c(N5CCC6(CCN6C(=O)n6cnc(C(F)(F)F)n6)C5)nc(OC[C@@]56CCCN5C[C@H](F)C6)nc4c3F)c12 (stereo partly drawn) [Compound 292, 2-amino-4-(6-chloro-8-fluoro-2-(((2R,7aS)-2-fluorotetrahydro-1H-pyrrolizin-7a(5H)-yl)methoxy)-4-(1-(3-(trifluoromethyl)-1H-1,2,4-triazole-1-carbonyl)-1,6-diazaspiro[3.4]octan-6-yl)quinazolin-7-yl)-7-fluorobenzo[b]thiophene-3-carbonitrile]
< 5 µM: KRAS G12S; [1] | KRAS G12D; [2] | KRAS WT; [3]

N#Cc1c(N)sc2c(F)ccc(-c3c(Cl)cc4c(N5CCC6(CCN6C(=O)n6cnnn6)C5)nc(OC[C@@]56CCCN5C[C@H](F)C6)nc4c3F)c12 (stereo partly drawn) [Compound 293, 4-(4-(1-(1H-tetrazole-1-carbonyl)-1,6-diazaspiro[3.4]octan-6-yl)-6-chloro-8-fluoro-2-(((2R,7aS)-2-fluorotetrahydro-1H-pyrrolizin-7a(5H)-yl)methoxy)quinazolin-7-yl)-2-amino-7-fluorobenzo[b]thiophene-3-carbonitrile]
< 5 µM: KRAS G12S; [1] | KRAS G12D; [2] | KRAS WT; [3]

N#Cc1c(N)sc2c(F)ccc(-c3c(Cl)cc4c(N5CCC6(CCN6C(=O)CCl)C5)nc(OC[C@@]56CCCN5C[C@H](F)C6)nc4c3F)c12 (stereo partly drawn) [Compound 294, 2-amino-4-(6-chloro-4-(1-(2-chloroacetyl)-1,6-diazaspiro[3.4]octan-6-yl)-8-fluoro-2-(((2R,7aS)-2-fluorotetrahydro-1H-pyrrolizin-7a(5H)-yl)methoxy)quinazolin-7-yl)-7-fluorobenzo[b]thiophene-3-carbonitrile]
< 5 µM: KRAS G12S; [1] | KRAS G12D; [2] | KRAS WT; [3]

N#Cc1c(N)sc2c(F)ccc(-c3c(Cl)cc4c(N5CCC6(CCCN6C(=O)[C@@H]6N[C@H]6C6CC6)CC5)nc(OC[C@@]56CCCN5C[C@H](F)C6)nc4c3F)c12 [Compound 295, 2-amino-4-(6-chloro-4-(1-((2R,3S)-3-cyclopropylaziridine-2-carbonyl)-1,8-diazaspiro[4.5]decan-8-yl)-8-fluoro-2-(((2R,7aS)-2-fluorotetrahydro-1H-pyrrolizin-7a(5H)-yl)methoxy)quinazolin-7-yl)-7-fluorobenzo[b]thiophene-3-carbonitrile]
< 5 µM: KRAS G12S; [1] | KRAS G12D; [2] | KRAS WT; [3]

N#Cc1c(N)sc2c(F)ccc(-c3c(Cl)cc4c(N5CCC6(CCN6C(=O)[C@@H]6N[C@H]6C6CC6)C5)nc(OC[C@@]56CCCN5C[C@H](F)C6)nc4c3F)c12 (stereo partly drawn) [Compound 296, 2-amino-4-(6-chloro-4-(1-((2R,3S)-3-cyclopropylaziridine-2-carbonyl)-1,6-diazaspiro[3.4]octan-6-yl)-8-fluoro-2-(((2R,7aS)-2-fluorotetrahydro-1H-pyrrolizin-7a(5H)-yl)methoxy)quinazolin-7-yl)-7-fluorobenzo[b]thiophene-3-carbonitrile]
< 5 µM: KRAS G12S; [1] | KRAS G12D; [2] | KRAS WT; [3]

CC(C)=C(C#N)C(=O)N1CCC12CCN(c1nc(OC[C@@]34CCCN3C[C@H](F)C4)nc3c(F)c(-c4ccc(F)c5sc(N)c(C#N)c45)c(Cl)cc13)C2 (stereo partly drawn) [Compound 297, 2-amino-4-(6-chloro-4-(1-(2-cyano-3-methylbut-2-enoyl)-1,6-diazaspiro[3.4]octan-6-yl)-8-fluoro-2-(((2R,7aS)-2-fluorotetrahydro-1H-pyrrolizin-7a(5H)-yl)methoxy)quinazolin-7-yl)-7-fluorobenzo[b]thiophene-3-carbonitrile]
< 5 µM: KRAS G12S; [1] | KRAS G12D; [2] | KRAS WT; [3]

N#Cc1c(N)sc2c(F)ccc(-c3c(Cl)cc4c(N5CCC6(CCN6C(=O)Oc6ccc([N+](=O)[O-])cc6)C5)nc(OC[C@@]56CCCN5C[C@H](F)C6)nc4c3F)c12 (stereo partly drawn) [Compound 298, 4-nitrophenyl 6-(7-(2-amino-3-cyano-7-fluorobenzo[b]thiophen-4-yl)-6-chloro-8-fluoro-2-(((2R,7aS)-2-fluorotetrahydro-1H-pyrrolizin-7a(5H)-yl)methoxy)quinazolin-4-yl)-1,6-diazaspiro[3.4]octane-1-carboxylate]
< 5 µM: KRAS G12S; PPI-HTRF-5 nM KRAS G12S | KRAS G12D | KRAS WT

N#Cc1c(N)sc2c(F)ccc(-c3c(Cl)cc4c(N5CCC6(CCN6C(=O)n6nccn6)C5)nc(OC[C@@]56CCCN5C[C@H](F)C6)nc4c3F)c12 (stereo partly drawn) [Compound 300, 4-(4-(1-(2H-1,2,3-triazole-2-carbonyl)-1,6-diazaspiro[3.4]octan-6-yl)-6-chloro-8-fluoro-2-(((2R,7aS)-2-fluorotetrahydro-1H-pyrrolizin-7a(5H)-yl)methoxy)quinazolin-7-yl)-2-amino-7-fluorobenzo[b]thiophene-3-carbonitrile]
< 5 µM: KRAS G12S; [1] | KRAS G12D; [2] | KRAS WT; [3]

N#Cc1c(N)sc2c(F)ccc(-c3c(Cl)cc4c(N5CCC6(COCCN6C#N)C5)nc(OC[C@@]56CCCN5C[C@H](F)C6)nc4c3F)c12 (stereo partly drawn) [Compound 302, 2-(7-(2-amino-3-cyano-7-fluorobenzo[b]thiophen-4-yl)-6-chloro-8-fluoro-2-(((2R,7aS)-2-fluorotetrahydro-1H-pyrrolizin-7a(5H)-yl)methoxy)quinazolin-4-yl)-9-oxa-2,6-diazaspiro[4.5]decane-6-carbonitrile]
< 5 µM: KRAS G12S; [1] | KRAS G12D; [2] | KRAS WT; [3]
